PubChem BioAssay AID1259407 (Chemical Carcinogenesis Research Information System (CCRIS), 2018)
Activity calls are given as the source filed them. How the calls were made is not given here.

System: CCRIS mutagenicity, Ames/micronucleus/aberration tests
Experiment: CCRIS mutagenicity studies
[1] = Test System: AMES SALMONELLA TYPHIMURIUM, Strain/Indicator: TA98, Metabolic Activation: NONE, Method: PREINCUBATION
[2] = Test System: AMES SALMONELLA TYPHIMURIUM, Strain/Indicator: TA100, Metabolic Activation: NONE, Method: PREINCUBATION
[3] = Test System: AMES SALMONELLA TYPHIMURIUM, Strain/Indicator: TA1535, Metabolic Activation: NONE, Method: PREINCUBATION
[4] = Test System: AMES SALMONELLA TYPHIMURIUM, Strain/Indicator: TA1537, Metabolic Activation: NONE, Method: PREINCUBATION
[5] = Test System: AMES SALMONELLA TYPHIMURIUM, Strain/Indicator: TA1538, Metabolic Activation: NONE, Method: PREINCUBATION

C=C[Si](OCC)(OCC)OCC
mutagenic call (Test System: AMES SALMONELLA TYPHIMURIUM, Strain/Indicator: TA98, Metabolic Activation: HAMSTER, LIVER, S-9, AROCLOR 1254 (10%), Method: PREINCUBATION): inactive; negative
mutagenic call [1]: inactive; negative
mutagenic call (Test System: AMES SALMONELLA TYPHIMURIUM, Strain/Indicator: TA98, Metabolic Activation: RAT, LIVER, S-9, AROCLOR 1254 (10%), Method: PREINCUBATION): inactive; negative
mutagenic call (Test System: AMES SALMONELLA TYPHIMURIUM, Strain/Indicator: TA100, Metabolic Activation: HAMSTER, LIVER, S-9, AROCLOR 1254 (10%), Method: PREINCUBATION): inactive; negative
mutagenic call [2]: inactive; negative
mutagenic call (Test System: AMES SALMONELLA TYPHIMURIUM, Strain/Indicator: TA100, Metabolic Activation: RAT, LIVER, S-9, AROCLOR 1254 (10%), Method: PREINCUBATION): inactive; negative
mutagenic call (Test System: AMES SALMONELLA TYPHIMURIUM, Strain/Indicator: TA1535, Metabolic Activation: HAMSTER, LIVER, S-9, AROCLOR 1254 (10%), Method: PREINCUBATION): inactive; negative
mutagenic call [3]: inactive; negative
mutagenic call (Test System: AMES SALMONELLA TYPHIMURIUM, Strain/Indicator: TA1535, Metabolic Activation: RAT, LIVER, S-9, AROCLOR 1254 (10%), Method: PREINCUBATION): inactive; negative
mutagenic call (Test System: AMES SALMONELLA TYPHIMURIUM, Strain/Indicator: TA1537, Metabolic Activation: HAMSTER, LIVER, S-9, AROCLOR 1254 (10%), Method: PREINCUBATION): inactive; negative
mutagenic call [4]: inactive; negative
mutagenic call (Test System: AMES SALMONELLA TYPHIMURIUM, Strain/Indicator: TA1537, Metabolic Activation: RAT, LIVER, S-9, AROCLOR 1254 (10%), Method: PREINCUBATION): inactive; negative
mutagenic call (Test System: AMES SALMONELLA TYPHIMURIUM, Strain/Indicator: TA1538, Metabolic Activation: HAMSTER, LIVER, S-9, AROCLOR 1254 (10%), Method: PREINCUBATION): inactive; negative
mutagenic call [5]: inactive; negative
mutagenic call (Test System: AMES SALMONELLA TYPHIMURIUM, Strain/Indicator: TA1538, Metabolic Activation: RAT, LIVER, S-9, AROCLOR 1254 (10%), Method: PREINCUBATION): inactive; negative
mutagenic call (Test System: Mouse lymphoma, Strain/Indicator: L5178Y (tk+/tk-), Metabolic Activation: None, Method: Suspension/plate): inactive; negative
mutagenic call (Test System: Mouse lymphoma, Strain/Indicator: L5178Y (tk+/tk-), Metabolic Activation: Rat, Liver, S-9, Aroclor 1254, Method: Suspension/plate): inactive; negative

Cc1nc2c(c3[nH]c4ccccc4c13)C(=O)C=C(N1CC1)C2=O
mutagenic call (Test System: AMES SALMONELLA TYPHIMURIUM, Strain/Indicator: TA97, Metabolic Activation: NONE, Method: STANDARD PLATE): active; positive
mutagenic call (Test System: AMES SALMONELLA TYPHIMURIUM, Strain/Indicator: TA97, Metabolic Activation: RAT, LIVER, S-9, AROCLOR 1254, Method: STANDARD PLATE): active; positive
mutagenic call (Test System: AMES SALMONELLA TYPHIMURIUM, Strain/Indicator: TA98, Metabolic Activation: NONE, Method: STANDARD PLATE): active; positive
mutagenic call (Test System: AMES SALMONELLA TYPHIMURIUM, Strain/Indicator: TA98, Metabolic Activation: RAT, LIVER, S-9, AROCLOR 1254, Method: STANDARD PLATE): active; positive
mutagenic call (Test System: AMES SALMONELLA TYPHIMURIUM, Strain/Indicator: TA100, Metabolic Activation: NONE, Method: STANDARD PLATE): active; positive
mutagenic call (Test System: AMES SALMONELLA TYPHIMURIUM, Strain/Indicator: TA100, Metabolic Activation: RAT, LIVER, S-9, AROCLOR 1254, Method: STANDARD PLATE): active; positive
mutagenic call (Test System: AMES SALMONELLA TYPHIMURIUM, Strain/Indicator: TA102, Metabolic Activation: NONE, Method: STANDARD PLATE): inactive; negative
mutagenic call (Test System: AMES SALMONELLA TYPHIMURIUM, Strain/Indicator: TA102, Metabolic Activation: RAT, LIVER, S-9, AROCLOR 1254, Method: STANDARD PLATE): active; positive

CC(C)CCCC(C)CCCC(C)CCCCC(C)CCCC(C)CCCC(C)C (configuration not stated)
mutagenic call (Test System: Ames Salmonella typhimurium, Strain/Indicator: TA98, Metabolic Activation: None, Method: Preincubation): inactive; negative
mutagenic call (Test System: Ames Salmonella typhimurium, Strain/Indicator: TA98, Metabolic Activation: Rat, Liver, S9, Phenobarbital and 5,6-benzoflavone, Method: Preincubation): inactive; negative
mutagenic call (Test System: Ames Salmonella typhimurium, Strain/Indicator: TA100, Metabolic Activation: None, Method: Preincubation): inactive; negative
mutagenic call (Test System: Ames Salmonella typhimurium, Strain/Indicator: TA100, Metabolic Activation: Rat, Liver, S9, Phenobarbital and 5,6-benzoflavone, Method: Preincubation): inactive; negative
mutagenic call (Test System: Ames Salmonella typhimurium, Strain/Indicator: TA1535, Metabolic Activation: None, Method: Preincubation): inactive; negative
mutagenic call (Test System: Ames Salmonella typhimurium, Strain/Indicator: TA1535, Metabolic Activation: Rat, Liver, S9, Phenobarbital and 5,6-benzoflavone, Method: Preincubation): inactive; negative
mutagenic call (Test System: Ames Salmonella typhimurium, Strain/Indicator: TA1537, Metabolic Activation: None, Method: Preincubation): inactive; negative
mutagenic call (Test System: Ames Salmonella typhimurium, Strain/Indicator: TA1537, Metabolic Activation: Rat, Liver, S9, Phenobarbital and 5,6-benzoflavone, Method: Preincubation): inactive; negative
mutagenic call (Test System: E. coli, Strain/Indicator: WP2uvrA/pKM101, Metabolic Activation: None, Method: Preincubation): inactive; negative
mutagenic call (Test System: E. coli, Strain/Indicator: WP2uvrA/pKM101, Metabolic Activation: Rat, Liver, S9, Phenobarbital and 5,6-benzoflavone, Method: Preincubation): inactive; negative

CCCC(=O)O[C@H]1[C@H](C)O[C@@H](O[C@H]2[C@H](N(C)C)[C@@H](O)[C@H](O[C@H]3[C@@H](CC=O)C[C@@H](C)[C@@H](O)/C=C/C=C/C[C@@H](C)OC(=O)C[C@@H](O)[C@@H]3OC)O[C@@H]2C)C[C@@]1(C)OC(=O)CC
mutagenic call [1]: inactive; negative
mutagenic call (Test System: AMES SALMONELLA TYPHIMURIUM, Strain/Indicator: TA98, Metabolic Activation: RAT, LIVER, S-9, AROCLOR 1254, Method: PREINCUBATION): inactive; negative
mutagenic call [2]: inactive; negative
mutagenic call (Test System: AMES SALMONELLA TYPHIMURIUM, Strain/Indicator: TA100, Metabolic Activation: RAT, LIVER, S-9, AROCLOR 1254, Method: PREINCUBATION): inactive; negative
mutagenic call [3]: inactive; negative
mutagenic call (Test System: AMES SALMONELLA TYPHIMURIUM, Strain/Indicator: TA1535, Metabolic Activation: RAT, LIVER, S-9, AROCLOR 1254, Method: PREINCUBATION): inactive; negative
mutagenic call [4]: inactive; negative
mutagenic call (Test System: AMES SALMONELLA TYPHIMURIUM, Strain/Indicator: TA1537, Metabolic Activation: RAT, LIVER, S-9, AROCLOR 1254, Method: PREINCUBATION): inactive; negative
mutagenic call [5]: inactive; negative
mutagenic call (Test System: AMES SALMONELLA TYPHIMURIUM, Strain/Indicator: TA1538, Metabolic Activation: RAT, LIVER, S-9, AROCLOR 1254, Method: PREINCUBATION): inactive; negative
mutagenic call (Test System: E. COLI, Strain/Indicator: WP2 UVRA, Metabolic Activation: NONE, Method: PREINCUBATION): inactive; negative
mutagenic call (Test System: E. COLI, Strain/Indicator: WP2 UVRA, Metabolic Activation: RAT, LIVER, S-9, AROCLOR 1254, Method: PREINCUBATION): inactive; negative
